From patent publication US20090004207A1, “Methods and Compositions for Inhibiting Pathological Angiogenesis in the Eye” (priority 2007, published 2009)

How the values were obtained:
[1] = system: human COX-2 promoter (phPES2); test: Human COX-2 promoter (phPES2) luciferase reporter activity in EOMA cells; type: cell-based; conditions: mouse hemangioendothelioma cells (EOMA); 100 nM for 5 hours
Description: Cells transfected with phPES2(−1432/+59) luciferase reporter were treated with PMA (100 nM, positive control). Results from one representative experiment is shown (*P<0.01, […], n=4).
EOMA cultures (3×10^5 cells/well) on 6-well plate were grown one day before the transfection. To measure transfection efficiency, cells were co-transfected with pCMV-βgal. For each well, 0.3 μg of the luciferase reporter vector phPES2(−1432/+59), 0.3 μg of the gene of interest (pcDNA3.1-S1p2 or pcDNA3.1-S1p1) and 25 ng of pCMV-βgal mixed with Lipofectin 2000 (Invitrogen) were introduced into the cells as described by the manufacturer. 24 hours after transfection, cells were treated with PMA (100 nm) for 5 hours, if necessary. Cells were harvested and luciferase and β-galactosidase activity were determined with Luciferase assay system (Promega) and Western-light and western-star system (Applied Biosystems) respectively. The amount of plasmid DNA was made constant by adding pcDNA 3.1 and luciferase activity was normalized to μg of protein content.
In addition, it was tested if S1P2 receptor can induce the transcription of the COX-2 gene. For this experiment, the human COX-2 promoter (phPES2) driven reporter activity was measured in transfected endothelial cells. […]

[2] = system: Bovine retinal endothelial cells; test: Boyden chamber cell migration assay, S1P-stimulated; type: cell-based; conditions: 1 μM, S1P 100 nM
Description: Bovine retinal endothelial cells were tested to see if JTE013, a specific S1P2 receptor antagonist, would influence normal endothelial cell functions, such as cell migration stimulated by S1P. […] In contrast, VPC44116, a specific inhibitor of S1P1 receptor blocked normal endothelial cell migration stimulated by S1P in these cells.

Compound	induction of phPES2 (−1432/+59) promoter activity [1]	endothelial cell migration stimulated by S1P [2]
CCCCCCCCCCCCCC(=O)O[C@@H]1[C@@H](C)[C@@]2(O)[C@@H](C=C(CO)C[C@]3(O)C(=O)C(C)=C[C@@H]23)[C@@H]2C(C)(C)[C@]12OC(C)=O [PMA]	1.83 fold	
CCCCCCCCc1cccc(NC(=O)[C@H](N)CCP(=O)(O)O)c1 [VPC44116]		blocked
